According to patent US9521847B2, “Synergistic weed control from applications of pyridine carboxylic acid herbicides and synthetic auxin herbicides and/or auxin transport inhibitors” (Dow AgroSciences LLC, priority 2014, dated 2016):
Where two headings read alike, the source gives them in different places.

Key:
[1] = tested on: large crabgrass (Digitaria sanguinalis, DIGSA); test: Greenhouse postemergence trial, % visual injury; format: in vivo; details: Digitaria sanguinalis, post-emergence; DIGSA; MCPA EHE 140 g ae/ha; read-out: % visual injury, Obs
[2] = tested on: winter wheat (TRZAW); test: Greenhouse postemergence trial, crop phytotoxicity (% visual injury); details: for % visual injury, Obs: TRZAW
[3] = tested on: common rice (ORYSA); test: as above; details: ORYSA
[4] = tested on: poinsettia (Euphorbia heterophylla, EPHHL); test: Greenhouse postemergence trial, % visual injury; details: Euphorbia heterophylla, post-emergence
[5] = tested on: spring barley (HORVS); test: Greenhouse postemergence trial, crop phytotoxicity (% visual injury)
[6] = tested on: maize (ZEAMX); test: as above; details: ZEAMX
[7] = tested on: wild buckwheat (Polygonum convolvulus, POLCO); test: Greenhouse postemergence trial, % visual injury; format: in vivo; details: for % visual injury, Obs: POLCO
[8] = tested on: pigweed (AMARE, Amaranthus retroflexus); test: Greenhouse postemergence trial, % visual injury; format: in vivo; details: for % visual injury, Obs: AMARE
[9] = tested on: wild pansy (Viola tricolor, VIOTR); test: Greenhouse postemergence trial, % visual injury; details: VIOTR
[10] = tested on: velvetleaf (Abutilon theophrasti, ABUTH); test: Greenhouse postemergence trial, % visual injury; format: in vivo; details: Abutilon theophrasti, post-emergence, ABUTH, read-out: % visual injury, Obs
[11] = tested on: spring rape (Brassica napus, BRSNN); test: Greenhouse postemergence trial, % visual injury; details: Brassica napus, post-emergence, read-out: % visual injury, Obs
[12] = tested on: winter rape (BRSNW, Brassica napus); test: Greenhouse postemergence trial, % visual injury; format: in vivo; details: for % visual injury Obs: 20-22 d
[13] = tested on: kochia (KCHSC, Kochia scoparia); test: Patio postemergence trial, % visual injury; format: in vivo; details: 20-22 d
Protocol: (§1) The plants were grown for 7-36 days (d) on a fenced, open-air patio. Nutrients and water were added on a regular basis.
(§2) Temperatures and photoperiods were dependent on the natural weather conditions during the trials. Weather conditions during trials were conducive for plant growth and development.

[14] = tested on: common lambsquarters (CHEAL, Chenopodium album L.); test: Greenhouse postemergence trial, % visual injury; format: in vivo
[15] = tested on: nutsedge (Cyperus esculentus, CYPES); test: Greenhouse postemergence trial, % visual injury; format: in vivo; details: CYPES
[16] = tested on: Canadian thistle (CIRAR, Cirsium arvense); test: Greenhouse postemergence trial, % visual injury;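 note: plants sprayed at second to third true leaf stage, injury scored visually 20-22 d later against solvent-blank sprayed controls, 0 meaning no injury and 100 complete kill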
[17] = tested on: winter wheat (TRZAW); test: Patio postemergence trial, crop phytotoxicity (% visual injury); format: in vivo, Triticum aestivum; details: 20-22 d
Protocol: as §1, §2

[18] = tested on: common chickweed (Stellaria media, STEME); test: Greenhouse postemergence trial, % visual injury; format: in vivo; details: STEME
[19] = tested on: kochia (KCHSC, Kochia scoparia); test: Greenhouse postemergence trial, % visual injury; format: in vivo; details: for % visual injury Obs: 20-22 d
Protocol: Following the protocol in Example 1, compound 1 and compound 2 were combined with 2,4 D EHE (EC) and applied to kochia (KCHSC, Kochia scoparia) and the phytotoxicity of the herbicidal compositions was measured.
Following the protocol in Example 1, compound 1 (EC) and Compound 2 (SC) were combined with diflufenzopyr and applied to kochia (Kochia scoparia, KCHSC) and the phytotoxicity of the herbicidal composition was measured.

[20] = tested on: ivyleaf morningglory (Ipomoea hederacea, IPOHE); test: Greenhouse postemergence trial, % visual injury; details: Ipomoea, post-emergence
[21] = tested on: spring wheat (TRZAS); test: Small plot field trial (Canada), crop phytotoxicity (% visual injury); format: in vivo, Triticum aestivum; details: 35 g ae/ha alone
From the text: (§3) Small plot field trials were established in Canada to evaluate efficacy and crop safety of Compound 7 with 2,4-D EHE. Trials were established as randomized complete blocks with 3-4 replicates. Individual plots were 2-3 meters (m) wide and 8-10 m long. Applications were made with backpack or tractor-mounted sprayers delivering a spray volume output of 100 liters per hectare (L/ha) using pressurized carbon dioxide (CO2) as a propellant. Compound 7 was combined with 2,4 D EHE (660 g ae/L EC formulation) and applied to spring wheat (TRZAS), and the phytotoxicity of the herbicidal compositions was measured. In addition, the efficacy of the herbicidal composition on Canadian thistle ([…], Cirsium arvense), kochia (KCHSC, Kochia scoparia), mallow (MALPU, Marva pusilla), wild buckwheat (POLCO, Polygonum convolvulus), and lady's thumb (POLPE, Polygonum persicaria) was evaluated.

[22] = tested on: winter wheat (TRZAW); details: Triticum aestivum (winter wheat), in vivo
[23] = tested on: kochia (KCHSC, Kochia scoparia); test: Small plot field trial (Canada), % visual injury; format: in vivo; details: 35 g ae/ha alone, 46-64 DAA
Protocol: as §3, with “Trials” for “Small plot field trials were established in Canada to evaluate efficacy and crop safety of Compound 7 with 2,4-D EHE. Trials”, “kochia (KCHSC, Kochia” left out, “([…]” for “(MALPU, Marva”

[24] = tested on: wild buckwheat (POLCO, Polygonum convolvulus); test: Small plot field trial (Canada), % visual injury; format: in vivo; details: 35 g ae/ha alone, 15 DAA
Protocol: as §3, with “Trials” for “Small plot field trials were established in Canada to evaluate efficacy and crop safety of Compound 7 with 2,4-D EHE. Trials”, “kochia (KCHSC, Kochia” left out, “([…]” for “(MALPU, Marva”

[25] = tested on: CIRAR = Cirsium arvense (Canadian thistle); test: Small plot field trial (Canada), % visual injury; format: in vivo; details: 35 g ae/ha alone, 46-64 DAA
Protocol: as §3, with “Trials” for “Small plot field trials were established in Canada to evaluate efficacy and crop safety of Compound 7 with 2,4-D EHE. Trials”, “kochia (KCHSC, Kochia” left out, “([…]” for “(MALPU, Marva”

[26] = tested on: lady's thumb (POLPE, Polygonum persicaria); test: Small plot field trial (Canada), % visual injury; format: in vivo; details: 35 g ae/ha alone, 14-16 DAA
Protocol: as §3, with “Trials” for “Small plot field trials were established in Canada to evaluate efficacy and crop safety of Compound 7 with 2,4-D EHE. Trials”, “kochia (KCHSC, Kochia” left out, “([…]” for “(MALPU, Marva”

[27] = tested on: MALPU = Malva pusilla (mallow); test: Small plot field trial (Canada), % visual injury; format: in vivo; details: 35 g ae/ha alone, 26-33 DAA
Protocol: as §3, with “Trials” for “Small plot field trials were established in Canada to evaluate efficacy and crop safety of Compound 7 with 2,4-D EHE. Trials”, “kochia (KCHSC, Kochia” left out, “([…]” for “(MALPU, Marva”

[28] = tested on: pigweed (AMARE, Amaranthus retroflexus); test: Patio postemergence trial, % visual injury; format: in vivo; details: 20-22 d
Protocol: as §1, §2

[29] = tested on: soybean (Glycine max, GIAMA); test: Greenhouse postemergence trial, % visual injury; format: in vivo; details: GLXMA, 140 g ae/ha
[30] = tested on: grain sorghum (Sorghum vulgare, SORVU); test: Greenhouse postemergence trial, % visual injury; format: in vivo; details: SORVU, 140 g ae/ha
[31] = crop, 280 g ae/ha alone, 20-22 d
[32] = Chenopodium album, post-emergence, read-out: % visual injury Obs

CCCCC(CC)COC(=O)COc1ccc(Cl)cc1C (stereo not shown) [MCPA EHE, 2-ethylhexyl (4-chloro-2-methylphenoxy)acetate]
pest or weed control at 140 g/ha [1]: 10%
% visual injury (Obs) ([2]; MCPA EHE 420 g ae/ha): 0%
% visual injury, Obs ([2]; 280 g ae/ha): 0%
% visual injury, Obs ([2]; 420 g ae/ha): 0%
% visual injury, Obs ([2]; MCPA EHE 140 g ae/ha): 3%
% visual injury Obs [2, 31]: 3%
% visual injury, Obs ([3]; 280 g ae/ha): 0%
% visual injury, Obs ([3]; MCPA EHE 140 g ae/ha): 3%
pest or weed control at 140 g/ha ([4]; read-out: % visual injury, Obs, EPHHL, MCPA EHE 140 g ae/ha): 0%
% visual injury, Obs ([5]; HORVS, 420 g ae/ha): 0%
% visual injury (Obs) ([5]; MCPA EHE 420 g ae/ha): 0%
% visual injury Obs [5, 31]: 0%
% visual injury, Obs ([6]; 280 g ae/ha): 0%
% visual injury, Obs ([6]; MCPA EHE 140 g ae/ha): 0%
% visual injury (Obs) ([7]; MCPA EHE 420 g ae/ha): 65%
% visual injury, Obs ([7]; 280 g ae/ha): 70%
% visual injury, Obs ([7]; 420 g ae/ha): 65%
% visual injury, Obs ([8]; MCPA EHE 140 g ae/ha): 70%
pest or weed control at 280 g/ha ([8]; Amaranthus retroflexus, post-emergence, 280 g ae/ha alone, 20-22 d, read-out: % visual injury Obs): 35%
% visual injury, Obs ([9]; 280 g ae/ha): 75%
% visual injury, Obs ([9]; MCPA EHE 140 g ae/ha): 60%
pest or weed control at 280 g/ha ([10]; 280 g ae/ha): 65%
pest or weed control at 140 g/ha ([10]; MCPA EHE 140 g ae/ha): 0%
plant injury at 140 g/ha [11]: 35%
plant injury at 280 g/ha [11]: 95%
% visual injury Obs ([12]; 280 g ae/ha alone): 73%
% visual injury Obs ([13]; 280 g ae/ha alone): 20%
pest or weed control at 280 g/ha ([14]; Chenopodium album, post-emergence, 280 g ae/ha alone, 20-22 d, read-out: % visual injury Obs): 75%
% visual injury, Obs ([15]; 280 g ae/ha): 50%
% visual injury, Obs ([15]; MCPA EHE 140 g ae/ha): 0%
% visual injury, Obs ([16]; CIRAR, 280 g ae/ha): 75%
% visual injury Obs ([17]; 280 g ae/ha alone): 0%
% visual injury, Obs ([18]; 280 g ae/ha): 10%
% visual injury Obs ([19]; 280 g ae/ha alone): 0%
pest or weed control at 280 g/ha ([19]; Bassia scoparia, post-emergence, KCHSC, 280 g ae/ha, read-out: % visual injury, Obs): 0%
pest or weed control at 140 g/ha ([20]; read-out: % visual injury, Obs, IPOHE, MCPA EHE 140 g ae/ha): 80%

Nc1c(F)c(-c2ccc3cc[nH]c3c2F)nc(C(=O)[O-])c1Cl.[K+] [compound 7]
% visual injury Obs ([21]; 6-8 DAA): 3%
% visual injury Obs ([21]; 14-16 DAA): 3%
pest or weed control at 8.75 g/ha ([8]; Amaranthus retroflexus, post-emergence, read-out: % visual injury Obs): 70%
% visual injury Obs [22]: 0%
% visual injury Obs [23]: 62%
% visual injury Obs [24]: 50%
% visual injury Obs [25]: 20%
% visual injury Obs [26]: 20%
% visual injury Obs [27]: 15%
% visual injury Obs ([12]; 8.75 g ae/ha alone): 58%
% visual injury Obs ([13]; 8.75 g ae/ha alone): 5%
% visual injury Obs ([13]; 17.5 g ae/ha alone): 0%
% visual injury Obs ([28]; 8.75 g ae/ha alone): 30%
% visual injury Obs ([28]; 17.5 g ae/ha alone): 40%
pest or weed control at 5 g/ha [14, 32]: 80%
pest or weed control at 8.75 g/ha [14, 32]: 60%
pest or weed control at 10 g/ha [14, 32]: 100%
pest or weed control at 5 g/ha ([16]; Cirsium arvense, post-emergence, read-out: % visual injury Obs, 5 g ae/ha alone, 20-22 d): 50%
pest or weed control at 8.75 g/ha ([16]; Cirsium arvense, post-emergence, read-out: % visual injury Obs, 8.75 g ae/ha alone, 20-22 d): 25%
pest or weed control at 10 g/ha ([16]; Cirsium arvense, post-emergence, read-out: % visual injury Obs, 10 g ae/ha alone, 20-22 d): 65%
% visual injury Obs ([17]; 8.75 g ae/ha alone): 5%
% visual injury Obs ([17]; 17.5 g ae/ha alone): 0%
% visual injury Obs ([19]; 8.75 g ae/ha alone): 55%

O=C(O)c1c(Cl)ccc2cc(Cl)cnc12 [quinclorac, reference compound]
% visual injury, Obs ([2]; 140 g ae/ha): 0%
% visual injury, Obs ([3]; 140 g ae/ha): 0%
pest or weed control at 140 g/ha ([4]; read-out: % visual injury, Obs, EPHHL, 140 g ae/ha): 20%
% visual injury, Obs ([6]; 140 g ae/ha): 0%
% visual injury, Obs ([8]; 140 g ae/ha): 10%
% visual injury, Obs ([9]; 140 g ae/ha): 10%
pest or weed control at 140 g/ha ([10]; 140 g ae/ha): 0%
% visual injury, Obs ([12]; BRSNW, 140 g ae/ha): 0%
% visual injury, Obs ([14]; CHEAL, 140 g ae/ha): 5%
% visual injury, Obs [29]: 30%
% visual injury, Obs ([18]; 140 g ae/ha): 10%
pest or weed control at 140 g/ha ([19]; Bassia scoparia, post-emergence, KCHSC, 140 g ae/ha, read-out: % visual injury, Obs): 0%
pest or weed control at 140 g/ha ([20]; read-out: % visual injury, Obs, IPOHE, 140 g ae/ha): 65%
% visual injury, Obs [30]: 0%
